{"source": "patent US8524696B2", "about": "“Water-soluble compositions of bioactive lipophilic compounds” (priority 1999, dated 2013)", "key": {"[1]": {"test": "Storage stability of water-soluble compositions and their aqueous solutions", "assay_type": "physicochemical", "settings": "in water or saline; refrigerated or frozen as stated"}, "[2]": {"tested_on": "spontaneously hypertensive rats (SHR)", "test": "Ischemia/reperfusion, middle cerebral artery occlusion model (MCAO), TTC staining", "assay_type": "in vivo, rat", "settings": "CoQ10 treatment postischemically"}, "[3]": {"tested_on": "Human teratocarcinoma NT2", "test": "Protection against hypoxia, cell viability by trypan blue exclusion", "assay_type": "cell-based", "settings": "10 mg/ml as PTS formulation, 3 days; 17.5 hours anaerobic, glucose-free", "description": "The flasks were sealed in an anaerobic chamber containing Gas Pak Plus gas generator envelopes and were incubated in the anaerobic conditions at 37° C. for 17.5 hours in glucose-free medium. Following the hypoxic treatment the cells were placed again in the complete medium (with and without CoQ10 or vitamin E) and were analysed either immediately (time 0) or were cultured for the additional 24 hr under the normoxic conditions. Cell viability was measured by trypan blue exclusion assay. […]"}, "[4]": {"tested_on": "red blood cells (RBC) isolated from Balb/c mice", "test": "In vitro haemolysis of red blood cells (RBC)", "assay_type": "cell-based, mouse", "settings": "0.3% Triton X-100, 1 h at 37° C., taken as 100% haemolysis (Table 17 reference column)"}, "[5]": {"test": "Systemic release of vitamin E following administration of PTS (plasma alpha-tocopherol by HPLC)", "assay_type": "in vivo, Sprague Dawley male rats", "settings": "for Concentration of α-tocopherol in rat blood plasma: PTS 50 mg/kg", "description": "PTS, dissolved in water (50 mg/ml), was administered to Sprague Dawley male rats (300-350 g) either orally or intravenously at a dose of 50 mg/kg body weight. Heparinized blood samples were collected at 0, 3, 8 and 24 hr following PTS administration. Blood plasma samples were obtained and analyzed for the content of alpha-tocopherol using an HPLC method using a Supercosil DB column and a mobile phase of ethanol:methanol (80:20 v/v) at a flow rate of 1 ml/min. Beckman System Karat software was used for data quantification."}}, "data": [{"compound": "CC1=C(/C=C/C(C)=C/C=C/C(C)=C/C=C/C=C(C)/C=C/C=C(C)/C=C/C2=C(C)C(=O)[C@@H](O)CC2(C)C)C(C)(C)C[C@H](O)C1=O", "note": "[Astaxanthin]", "values": [{"measurement": "stability of aqueous solutions", "setting": "[1]", "result": "remained stable for several months"}]}, {"compound": "COC1=C(OC)C(=O)C(C/C=C(\\C)CC/C=C(\\C)CC/C=C(\\C)CC/C=C(\\C)CC/C=C(\\C)CC/C=C(\\C)CC/C=C(\\C)CC/C=C(\\C)CC/C=C(\\C)CCC=C(C)C)=C(C)C1=O", "note": "[CoQ10, Coenzyme Q10]", "values": [{"measurement": "protective effects against ischemia-induced tissue damage", "setting": "[2]", "result": "clearly evident"}, {"measurement": "percentage of death during the 24 hr recovery period from hypoxia", "setting": "[3]", "result": "reduced by half"}]}, {"compound": "Cc1c(C)c2c(c(C)c1O)CC[C@@](C)(CCC[C@H](C)CCC[C@H](C)CCCC(C)C)O2", "note": "[Vitamin E, α-(+)-tocopherol]", "values": [{"measurement": "percentage of death during the 24 hr recovery period from hypoxia", "setting": "[3]", "result": "reduced by half"}]}, {"compound": "Triton X-100", "values": [{"measurement": "Percentage of lysed Cells", "setting": "[4]", "result": 100.0, "unit": "%"}]}, {"compound": "polyoxyethanyl-α-tocopheryl sebacate [PTS]", "values": [{"measurement": "Concentration of α-tocopherol in rat blood plasma", "setting": "[5]; Intravenous administration, 3 hours", "result": "18.48 ± 2.40 (n = 3) μg/ml"}, {"measurement": "Concentration of α-tocopherol in rat blood plasma", "setting": "[5]; Intravenous administration, 8 hours", "result": "11.19 ± 3.11 (n = 3) μg/ml"}, {"measurement": "Concentration of α-tocopherol in rat blood plasma", "setting": "[5]; Intravenous administration, 24 hours", "result": "10.59 ± 1.48 (n = 3) μg/ml"}, {"measurement": "Concentration of α-tocopherol in rat blood plasma", "setting": "[5]; Oral administration, 3 hours", "result": "8.65 ± 1.40 (n = 3) μg/ml"}, {"measurement": "Concentration of α-tocopherol in rat blood plasma", "setting": "[5]; Oral administration, 8 hours", "result": "9.33 ± 2.10 (n = 3) μg/ml"}, {"measurement": "Concentration of α-tocopherol in rat blood plasma", "setting": "[5]; Oral administration, 24 hours", "result": "8.31 ± 0.60 (n = 3) μg/ml"}, {"measurement": "plasma content of α-tocopherol after PTS (systemic conversion to vitamin E)", "setting": "[5]; oral or intravenous PTS, rat", "result": "Elevated"}]}]}
